Measured values published in patent US20220289791A1, “LACTATE DEHYDROGENASE INHIBITOR POLYPEPTIDES FOR USE IN THE TREATMENT OF CANCER” (UNIVERSITÉ CATHOLIQUE DE LOUVAIN, priority 2019, published 2022).
*1 amine or outer side, *2 acyl side, *3 side chain or, on linkers, in order; H or OH if unused. Where a SMILES comes first, the peptide text is derived from it. Bridges are numbered along the chain shown (N, C = ends). mXylylene = c1cc(C[*:1])cc(C[*:2])c1

How the values were obtained:
LDHBtr [1] = target: T1, LDHBtr (Homo sapiens, UniProt P07195); assay: NMR WaterLOGSY binding screening
T1 sequence (P07195 21-334): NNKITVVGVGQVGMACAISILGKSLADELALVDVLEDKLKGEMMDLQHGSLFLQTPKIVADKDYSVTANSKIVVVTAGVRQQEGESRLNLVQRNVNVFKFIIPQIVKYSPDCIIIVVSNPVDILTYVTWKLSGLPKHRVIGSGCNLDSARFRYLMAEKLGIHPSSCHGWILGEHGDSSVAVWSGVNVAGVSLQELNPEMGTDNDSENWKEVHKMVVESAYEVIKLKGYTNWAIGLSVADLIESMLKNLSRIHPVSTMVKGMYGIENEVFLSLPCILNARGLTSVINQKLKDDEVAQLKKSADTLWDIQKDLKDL
Experimental: All experiments were acquired on a Bruker Ascend Avance III 600 MHz equipped with a broadband cryoprobe (Bruker® GmBH, Germany)
(§1) NMR WaterLOGSY was performed on samples prepared in 10% D2O buffer containing 50 mM sodium phosphate buffer, pH 7.6 and 100 mM NaCl. The concentration of LDH subunits was 15-20 μM. Ligand binding was detected using a NMR WaterLOGSY ephogsygpno.2 advance-version sequence with a […]. Water signal suppression was achieved using excitation sculpting scheme and a 50 ms spinlock was used to suppress protein background signal. For each experiment, 512 scans were collected to yield a 16K points FID. NMR WaterLOGSY intensity was corrected by plotting the intensity difference of the ligand NMR WaterLOGSY spectra recorded in the presence and absence of protein.
For NMR WaterLOGSY screening experiments a correction factor was applied to account for slight concentration variation between samples. To do so, 8 scans 1H NMR spectra with 50 ms spinlock were recorded before NMR WaterLOGSY experiments. The intensity ratio of the aliphatic region (0.700 ppm to 0.955 ppm) with and without protein was used as a correction factor to compare the NMR WaterLOGSY intensity of the polypeptides of interest with and without LDH subunits. An arbitrary threshold of 0.1, corresponding to a 10% decrease in the NMR WaterLOGSY signal intensity between the spectra with and without protein, was set to discriminate between binders and non-binders.

LDHBtr [2] = target: T1, LDHBtr; assay: Microscale thermophoresis (MST), Example 1; type: binding
Experimental: (§2) MST measurements were performed on a Nanotemper Monolith NT.115 instrument (Nanotemper Technologies®, GmbH) using Red-dye-NHS fluorescent labeling. Each LDH (WT or truncated) sample, purified to homogeneity, was labeled with the Monolith RED-NHS 2nd generation labeling dye according to the supplied protocol (Nanotemper Technologies®, GmbH). Measurements were performed in 50 mM Na-Phosphate pH 7.6 and 100 mM NaCl containing 0.05% Tween-20 in premium treated capillaries (Nanotemper Technologies®, GmbH). The final concentrations of either labeled protein in the assay were 100 nM. The ligands (NADH and peptides) were titrated in 1:1 dilutions following manufacturer's recommendations. All binding reactions were incubated 5′ at room temperature after loading into capillaries. Experiments were performed in triplicates using 40% LED power and medium MST power, LaserOn time was 20 sec, Laser Off time 3 sec. Linear octapeptides were evaluated for their thermophoretic pattern.

rabbit LDHA (LDH-M) = target: T2, rabbit LDHA (LDH-M) (Oryctolagus cuniculus, UniProt P13491); assay: Intrinsic fluorescence assay: recovery of tryptophan fluorescence after acidic dissociation, Example 1; type: biochemical; settings: pre-dissociation at pH 5.0, neutralization; LT018 50 μM, LB8 up to 100 μM
T2 construct: purchased Sigma-Aldrich
Experimental: Following described procedure; rabbit LDHA commercial solution in an ammonium sulfate suspension in (pH-7.0, 3.2 M) was first diluted to 1 mg/ml in a solution of NaCl 200 mM and then dialyzed at 4° C. 2×2 h against 200 mM NaCl. The stock solution of 1 mg/ml was then diluted to 30 μg/ml in NaCl 200 mM to give the assay solution.
Assay solution was mixed 1:1 with either an acetate-chloride buffer (20 mM Acetic acid/Acetate, 180 mM NaCl, pH 5.0) or phosphate buffer (250 mM phosphate pH 7.6). After storage at 4° C. for 30′, samples were removed and diluted 1:1,250 mM phosphate buffer (pH 7.6) to yield a 7.5 μg/ml final concentration of re-associating LDH-M.
Samples of the resulting solutions were then subjected to kinetic experiments of the recovery of intrinsic fluorescence (Exc=286 nm, Em=350 nm, 10′, rt). Full tryptophan fluorescence spectra were afterward recorded (Exc=286 nm, Em=320-400 nm, rt).
To confirm this hypothesis, experiments were therefore designed to follow the recovery of the LDH tetrameric form after a pre-dissociation initiated in slightly acidic conditions. Briefly, six tryptophan residues are found in the LDH structure, three of them being located at the dimer-dimer interface. As the tryptophan quantum yield decreases in polar environment, dimeric LDHs show very weak tryptophan fluorescence compared to tetrameric one. […] The recovery of fluorescence upon pH neutralization is therefore a direct measure of the tetramer re-association.

rabbit LDH5 (rLDH5) = target: T3, rabbit LDH5 (rLDH5) (Oryctolagus cuniculus, UniProt P13491); assay: Denaturation assay: rLDH5 fluorescence recovery after acidic exposure; type: biochemical; settings: 200 nM rLDH5, 50 μM peptide, pH 5 then neutral pH
T3 construct: purchased Sigma-Aldrich
Experimental: Rabbit LDHA commercial solution (Sigma-Aldrich®) in an ammonium sulfate suspension (pH-7, 3.2 M) was first diluted to 1 mg/ml in a solution of NaCl 200 mM and then dialyzed at 4° C. 2×2 h against 200 mM NaCl. The stock solution of 1 mg/ml was then diluted to 30 μg/ml (800 nM) in NaCl 20 0 mM to give the assay solution. Assay solution was mixed 1:1 with acetate-chloride buffer (20 mM Acetic acid/Acetate, 180 mM NaCl, 1 mM DTT pH 5) and stored on ice for 30 minutes. Samples were then removed from ice and let warm up for 2 minutes. The acidic solution was then diluted 1:1 with a 250 mM phosphate buffer (pH 7.6) containing or not the inhibitory peptide to yield a 7.5 μg/ml (200 nM) final concentration of re-associating LDHA. Samples of the resulting solutions were then subjected to kinetic experiments of the recovery of intrinsic fluorescence (Exc=286 nm, Em=350 nm, 10′, rt).
An experiment was thus designed to follow the recovery of LDH tetramers after a dissociation step initiated by acidic conditions. […] Monitoring of the rLDH5 tetrameric state was performed by following its intrinsic tryptophan fluorescence: 6 tryptophan residues can be found in each rLDHA monomer, three of them being located at the dimer-dimer interface. As the tryptophan quantum yield decreases in a polar environment, dimeric LDHs show very weak tryptophan fluorescence compared to the tetrameric form. […] Such decay can be compared to the difference in tryptophan fluorescence between tetrameric LDH1 and dimeric LDHBtr.

full length LDH1 enzyme = full length LDH1 enzyme (Homo sapiens, UniProt P07195); assay: Biochemical/biophysical evaluation of interaction with full length tetrameric LDHB; type: binding
full length LDH1 enzyme, sequence (P07195 whole entry): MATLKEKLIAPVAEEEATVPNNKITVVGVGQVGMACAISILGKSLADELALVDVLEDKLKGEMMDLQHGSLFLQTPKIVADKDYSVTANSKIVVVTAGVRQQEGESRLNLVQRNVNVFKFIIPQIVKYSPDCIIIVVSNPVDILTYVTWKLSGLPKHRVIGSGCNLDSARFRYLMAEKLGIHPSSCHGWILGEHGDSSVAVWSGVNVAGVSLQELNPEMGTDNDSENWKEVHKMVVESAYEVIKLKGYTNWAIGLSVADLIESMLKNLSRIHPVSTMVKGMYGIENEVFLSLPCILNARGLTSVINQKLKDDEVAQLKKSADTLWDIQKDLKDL
Experimental: as §1
as §2, with “The ligands (NADH and peptides) were titrated in 1:1 dilutions following manufacturer's recommendations. All binding reactions were incubated 5′ at room temperature after loading into capillaries. Experiments were performed in triplicates using 40% LED power and medium MST power, LaserOn time was 20 sec, Laser Off time 3 sec.” left out

tetrameric LDH1 = tetrameric LDH1 (Homo sapiens, UniProt P07195); assay: Microscale thermophoresis (MST) on tetrameric LDH1; type: binding
tetrameric LDH1, sequence (P07195 whole entry): as above
Experimental: (§3) MST measurements were performed on a Nanotemper Monolith NT.115 instrument (NanoTemper Technologies®) using Red-dye-NHS fluorescent labeling. Each LDH sample, purified to homogeneity, was labeled with the Monolith Red-dye-NHS 2nd generation labeling dye (NanoTemper Technologies®), according to the manufacturer's instructions. Measurements were performed in 50 mM sodium phosphate, pH 7.6, and 100 mM NaCl containing 0.05% Tween-20 in premium-treated capillaries (NanoTemper Technologies®). The final concentrations of either labeled protein in the assay were 100 nM. The ligands (NADH and peptides) were titrated in 1:1 dilutions following manufacturer's recommendations. All binding reactions were incubated for 5 min at room temperature after loading into capillaries. Experiments were performed in triplicates using 40% LED power, medium MST power, Laser On time 20 s and Laser Off time 3 s. Peptides were evaluated for their thermophoretic pattern, and Kd's were extracted from raw data at a 10 to 20 s MST on time according to manufacturer's instructions. Regarding interaction of 7 with LDH5, Kd was extracted from the raw fluorescence. A denaturation test was performed accordingly to manufacturer recommendation and excluded any nonspecific spectral interaction between 7 and the red-dye. […]

tetrameric LDH5 = target: T4, tetrameric LDH5 (Homo sapiens, UniProt P00338); assay: Microscale thermophoresis (MST) on tetrameric LDH5; type: binding
T4 construct: purchased Abnova
Experimental: as §3

human LDH1 = human LDH1 (Homo sapiens, UniProt P07195); assay: nanoDSF thermal denaturation of LDH1; type: binding; settings: nanoDSF
human LDH1, sequence (P07195 whole entry): as above

human LDH5 = target: T5, human LDH5 (Homo sapiens, UniProt P00338); assay: nanoDSF thermal denaturation of LDH5; type: binding; settings: nanoDSF
T5 construct: purchased Abnova

[3] = linear peptides at 800 μM, LDHBtr 15 μM

| Molecule | Binding using WaterLOGSY (800 μM) (LDHBtr [1]; [3]) | Kd (LDHBtr [2]; linear peptides, read-out: Kd using MST experiment) [mM] | recovery of fluorescence intensity after denaturation (LDH re-association) (rabbit LDHA (LDH-M)) | LDH5 fluorescence recovery after acidification (rabbit LDH5 (rLDH5)) | NMR WaterLOGSY signal / saturation transfer (LDHBtr [1]) | Interaction with full length LDH1 / competition with LDHB native arm (full length LDH1 enzyme) | Binding using WaterLOGSY (800 μM) (LDHBtr [1]; cyclic peptides at 800 μM) | increase in potency compared to LB8 (LDHBtr [2]; Kd by MST) [fold] | binding to tetrameric LDH1 (tetrameric LDH1) | binding to tetrameric LDH5 (tetrameric LDH5) | effect on LDH1 stability (human LDH1) | effect on LDH5 stability (human LDH5) |
| --- | --- | --- | --- | --- | --- | --- | --- | --- | --- | --- | --- | --- |
| CC[C@H](C)[C@H](NC(=O)[C@H](CC(C)C)NC(=O)[C@H](CCCCN)NC(=O)[C@H](CCC(=O)O)NC(=O)[C@H](CCCCN)NC(=O)[C@H](CC(C)C)NC(=O)[C@@H](NC(=O)[C@H](C)N)[C@@H](C)O)C(N)=O [LB8, ATLKEKLI] (H-ATLKEKLI-NH2; N-terminus assumed) | + (binders) | 1.4 | no effects up to 100 μM | no effect |  |  |  |  |  |  |  |  |
| CC[C@H](C)[C@H](NC(=O)[C@H](CC(C)C)NC(=O)[C@H](CCCCN)NC(=O)[C@H](CCC(=O)O)NC(=O)[C@H](CCCCN)NC(=O)[C@H](CC(C)C)NC(=O)[C@@H](NC(=O)[C@H](C)N)[C@@H](C)O)C(=O)N[C@@H](C)C(=O)N1CCC[C@H]1C(=O)N[C@H](C(=O)N[C@@H](C)C(=O)N[C@@H](CCC(=O)O)C(=O)N[C@@H](CCC(=O)O)C(=O)N[C@@H](CCC(=O)O)C(=O)N[C@@H](C)C(=O)N[C@H](C(=O)N[C@H](C(=O)N1CCC[C@H]1C(N)=O)C(C)C)[C@@H](C)O)C(C)C [LB19, ATLKEKLIAPVAEEEATVP] (H-ATLKEKLIAPVAEEEATVP-NH2; N-terminus assumed) | + (binders) |  |  |  | positive signal | no interaction |  |  |  |  |  |  |
| CC[C@H](C)[C@H](NC(=O)[C@H](CC(C)C)NC(=O)[C@H](CCCCN)NC(=O)[C@@H]1CSCc2cccc(c2)CSC[C@H](N)C(=O)N[C@@H]([C@@H](C)O)C(=O)N[C@@H](CC(C)C)C(=O)N[C@@H](CCCCN)C(=O)N1)C(N)=O [LT018, CTLKCKLI] (H-CTLKCKLI-NH2; linker 1-5 via mXylylene; N-terminus assumed) |  |  | nicely interfered with the fluorescence recovery at 50 μM |  | intense saturation transfer | not able to compete with LDHB native arm | + (binders) | 30 |  |  |  |  |
| CC[C@H](C)[C@H](NC(=O)[C@H](CC(C)C)NC(=O)[C@H](CCCCN)NC(=O)[C@@H]1CSCc2cccc(c2)CSC[C@H](N)C(=O)N[C@@H]([C@@H](C)O)C(=O)N[C@@H](CC(C)C)C(=O)N[C@@H](CCCCN)C(=O)N1)C(N)=O [MP1, CTLKCKLI] (H-CTLKCKLI-NH2; linker 1-5 via mXylylene; N-terminus assumed) |  |  |  | significantly interfered |  |  |  |  | did not demonstrated any binding | did not demonstrated any binding | no effect up to 500 μM | no effect up to 500 μM |
| Ac-LIAPVAE-NH2 [LBc, LB19 central fragment evaluated as a negative control, reference compound] | − (non-binders) |  | no effect | no effect | not to demonstrate any appreciable saturation transfer |  |  |  |  |  |  |  |
